Assay results reported in publication PMC8834685 (International Journal of Molecular Sciences, 2022).

T1: DmUCP4A (Drosophila melanogaster, UniProt Q9VX14)
T1 construct: gene Ucp4A
T1 sequence (Q9VX14 1-340): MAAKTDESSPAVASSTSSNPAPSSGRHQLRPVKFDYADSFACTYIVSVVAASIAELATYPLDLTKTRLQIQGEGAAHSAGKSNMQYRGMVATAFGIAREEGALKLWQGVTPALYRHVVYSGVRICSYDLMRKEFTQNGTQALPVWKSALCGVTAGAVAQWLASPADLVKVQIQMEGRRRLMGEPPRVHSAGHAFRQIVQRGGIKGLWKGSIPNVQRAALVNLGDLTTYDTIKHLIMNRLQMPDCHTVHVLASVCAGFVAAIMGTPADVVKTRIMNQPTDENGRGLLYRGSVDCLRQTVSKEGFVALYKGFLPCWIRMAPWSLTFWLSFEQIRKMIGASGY

B1: DmUCP4A (Drosophila melanogaster) (protein)
chain: T1 sequence (Q9VX14 1-340)

The molecules below were run on N[C@@H](CC(=O)O)C(=O)O (assay: purified protein). Conditions: aspartate/aspartate exchange, 10 mM internal aspartate, pH 6.5, 25 °C, labelled compound.

Molecule	Km
B1	229.2 ± 12.64 µM

Each molecule was assayed against T1, DmUCP4A (assay: inhibition of […]aspartate/aspartate exchange in proteoliposomes). Conditions: 0.3 mM external [14C]aspartate, 10 mM internal aspartate, pH 6.5, 25 °C, 1 min.
Format: biochemical

Molecule	% inhibition at 10 mM
O=C(O)CCC(=O)C(=O)O [2-oxoglutarate]	to a much lower extent by oxalate, maleate, 2-oxoglutarate, and cysteine sulfinate
O=C(O)/C=C\C(=O)O [maleate]	to a much lower extent by oxalate, maleate, 2-oxoglutarate, and cysteine sulfinate
CCCCC(C(=O)O)C(=O)O [butylmalonate]	butylmalonate, and phenylsuccinate
c1ccc(-c2ccnc3c2ccc2c(-c4ccccc4)ccnc23)cc1 [bathophenanthroline]	The activity of DmUCP4A was strongly inhibited by BAT, PLP, and tannic acid
O=C(O)CC(C(=O)O)c1ccccc1 (stereo not drawn) [phenylsuccinate]	butylmalonate, and phenylsuccinate
Cc1ncc(COP(=O)(O)O)c(C=O)c1O [pyridoxal-5′-phosphate]	The activity of DmUCP4A was strongly inhibited by BAT, PLP, and tannic acid
N[C@@H](CS(=O)O)C(=O)O [cysteine sulfinate]	to a much lower extent by oxalate, maleate, 2-oxoglutarate, and cysteine sulfinate

Same assay, conditions: 0.3 mM external [14C]aspartate, 10 mM internal aspartate, pH 6.5, 25 °C, 1 min; added externally with labelled aspartate as potential competitor

Molecule	% inhibition at 10 mM
O=C(O)C(=O)O [oxalate]	to a much lower extent by oxalate, maleate, 2-oxoglutarate, and cysteine sulfinate
